Legend:
[1] = target: T1, TRPV1 (Homo sapiens, UniProt Q8NER1); assay: Calcium fluorescence signal, HEK293 cells overexpressing TRPV1; type: cell-based; details: 10 μM
T1 construct: expressed in transfected cells; host or cells: HEK293
Protocol: (§1) Figure S3. Specificity of malathion for TRPA1 channels. (A-F) Time course of the fluorescence signal induced by malathion (Mala, 10 μM) and the indicated positive agonists (10 μM) in HEK293 cells overexpressing TRPV1 (A), TRPV3 (B), TRPV4 (C), TRPM8 (D), TRPC4 (E) and TRPC5 (F) channels. The fluorescence signals are scaled as F/F0. EC indicates external solution. […]
(§2) cells for each tested TRP channel. All bars are presented as the mean ± SEM. […]

[2] = target: T2, TRPV3 (Homo sapiens, UniProt Q8NET8); assay: Calcium fluorescence signal, HEK293 cells overexpressing TRPV3; type: cell-based; details: 10 μM
T2 construct: expressed in transfected cells; host or cells: HEK293
T2 sequence (Q8NET8 1-790): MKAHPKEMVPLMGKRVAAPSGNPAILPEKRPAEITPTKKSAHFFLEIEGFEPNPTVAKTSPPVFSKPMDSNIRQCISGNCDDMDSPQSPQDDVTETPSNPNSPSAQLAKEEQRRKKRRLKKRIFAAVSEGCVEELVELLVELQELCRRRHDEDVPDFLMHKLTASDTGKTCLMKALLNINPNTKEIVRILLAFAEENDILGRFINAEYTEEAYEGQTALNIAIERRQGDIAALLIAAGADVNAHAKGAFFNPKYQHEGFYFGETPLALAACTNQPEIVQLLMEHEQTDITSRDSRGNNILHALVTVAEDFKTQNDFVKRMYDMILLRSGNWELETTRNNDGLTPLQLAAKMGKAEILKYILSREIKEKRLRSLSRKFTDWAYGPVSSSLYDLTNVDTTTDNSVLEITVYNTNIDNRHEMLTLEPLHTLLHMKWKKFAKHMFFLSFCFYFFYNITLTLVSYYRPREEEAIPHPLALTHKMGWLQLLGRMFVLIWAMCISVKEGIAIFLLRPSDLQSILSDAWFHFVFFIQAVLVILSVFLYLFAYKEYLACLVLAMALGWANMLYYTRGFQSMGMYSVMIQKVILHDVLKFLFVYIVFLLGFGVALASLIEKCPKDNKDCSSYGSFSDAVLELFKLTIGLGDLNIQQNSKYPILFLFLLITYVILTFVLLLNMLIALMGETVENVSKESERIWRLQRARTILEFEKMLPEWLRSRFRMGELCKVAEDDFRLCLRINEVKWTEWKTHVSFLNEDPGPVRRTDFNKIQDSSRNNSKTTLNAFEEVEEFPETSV
Protocol: as §1, §2

[3] = target: T3, TRPM8 (Homo sapiens, UniProt Q7Z2W7); assay: Calcium fluorescence signal, HEK293 cells overexpressing TRPM8; type: cell-based; details: 10 μM
T3 construct: expressed in transfected cells; host or cells: HEK293
T3 sequence (Q7Z2W7 whole entry, species assumed): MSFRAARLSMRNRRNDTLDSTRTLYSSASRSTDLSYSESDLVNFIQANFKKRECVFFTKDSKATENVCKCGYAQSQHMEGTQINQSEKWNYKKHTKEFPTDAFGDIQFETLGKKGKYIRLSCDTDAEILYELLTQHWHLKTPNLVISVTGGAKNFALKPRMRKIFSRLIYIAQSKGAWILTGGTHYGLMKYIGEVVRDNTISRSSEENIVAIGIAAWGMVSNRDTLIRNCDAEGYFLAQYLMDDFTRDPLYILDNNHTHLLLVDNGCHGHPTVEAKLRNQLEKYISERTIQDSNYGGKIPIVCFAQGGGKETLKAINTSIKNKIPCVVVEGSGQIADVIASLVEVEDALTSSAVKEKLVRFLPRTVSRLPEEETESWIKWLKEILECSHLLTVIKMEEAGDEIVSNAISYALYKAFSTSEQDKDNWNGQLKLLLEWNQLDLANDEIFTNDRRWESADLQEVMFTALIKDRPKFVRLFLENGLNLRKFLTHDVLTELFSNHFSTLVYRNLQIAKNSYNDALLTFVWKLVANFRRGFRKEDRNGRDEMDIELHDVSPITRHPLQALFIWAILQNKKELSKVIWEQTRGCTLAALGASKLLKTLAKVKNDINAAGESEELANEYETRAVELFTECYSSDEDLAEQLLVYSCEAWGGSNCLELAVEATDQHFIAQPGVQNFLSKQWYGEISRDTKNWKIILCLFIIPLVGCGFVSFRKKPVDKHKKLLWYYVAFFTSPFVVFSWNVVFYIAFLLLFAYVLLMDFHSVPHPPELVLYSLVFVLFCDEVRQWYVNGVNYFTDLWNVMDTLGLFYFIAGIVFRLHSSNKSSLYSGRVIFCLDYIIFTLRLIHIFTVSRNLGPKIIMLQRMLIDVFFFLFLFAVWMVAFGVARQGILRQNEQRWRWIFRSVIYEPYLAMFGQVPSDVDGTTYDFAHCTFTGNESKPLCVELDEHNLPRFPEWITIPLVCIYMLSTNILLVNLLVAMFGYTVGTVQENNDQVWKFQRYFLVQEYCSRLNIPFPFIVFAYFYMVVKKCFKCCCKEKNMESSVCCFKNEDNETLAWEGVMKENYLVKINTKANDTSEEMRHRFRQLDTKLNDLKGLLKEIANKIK
Protocol: as §1, §2

[4] = system: hTRPA1 carrying single mutations (C414A, C421A, C621A, C641A, C665A or K710R); assay: Whole-cell patch-clamp of mutant hTRPA1 channels; type: cell-based, human; details: 30 μM malathion
Protocol: Human embryonic kidney 293 (HEK293) cells were cultured in DMEM containing 10% (vol/vol) heat-inactivated fetal bovine serum, 100 units ml^−1 penicillin–streptomycin and 2 mM L-glutamine at 37 °C in a humidity-controlled sterile incubator with 5% CO2. All cell culture reagents were purchased from Life Technologies. HEK293 cells were transfected transiently with the corresponding plasmids using lipofectamine 2000 (Life Technologies). Transfection efficiency was monitored by co-transfecting EGFP plasmid which codes for the enhanced green fluorescent protein. Electrophysiological recordings were performed between 24 and 36 h after transfection.
Whole-cell patch-clamp recordings in DRG neurons (small diameter, […]) and HEK293 cells were operated at room temperature (23–25 °C) using EPC-10 amplifier and Patch Master Software (HEKA). […] Currents were sampled at 10 kHz and low-pass filtered at 2.9 kHz. The internal solution was as follows (in mM): 140 CsCl, 10 HEPES, 5 EGTA, 0.1 CaCl2 and 1 MgCl2, with pH adjusted to 7.2 by CsOH and osmolarity 295–300 mOsm. […] TRPA1 currents development was monitored with repetitive injections of 300 ms duration voltage ramps from −100 to +100 mV every 2 s and the holding potential was set to 0 mV for 50 ms, existing in both sides of the voltage ramp. […]

[5] = system: mouse DRG neurons; assay: Single-cell calcium imaging (Fura-2/AM) of isolated DRG neurons; type: cell-based
Protocol: DRG neurons were isolated from young C57 BL/6 mice (4–5 weeks). The sections of thoracic and lumbar DRG neurons were rapidly isolated in calcium and magnesium-free PBS with low temperature conditions (ice-bath environment). The isolated tissues were cut into pieces with scissor and incubated for 30 min with 0.1% collagenase and 0.025% trypsin which were diluted by DMEM-F12 at 37 °C. After digestion, neurons were gently dissociated using Pasteur pipettes and then plated onto poly-D-lysine pre-coated glass cover slips. DRG neurons were cultured for 24 h before use.
Calcium influx signals were monitored using the ratio metric fluorescent indicator dye Fura-2/AM at room temperature (23–25 °C). Cells were incubated with 2 μM Fura-2/AM, which was generated by diluting the stock solution with normal external solution, for 30 min at 37 °C. […] The maximum excitation wave length of Fura-2/AM was changed to 340 nm from 380 nm when combined with calcium ions. Fura-2/AM was excited at 340 and 380 nm with a rapid switching monochromator obtained from TILL Photonics, and the mean fluorescence intensity ratios (F340/F380) reflected real-time changes in the concentration of intracellular free calcium ions. The external solution used in the DRG whole-cell patch-clamp recordings was also used for calcium imaging. Solutions were switched using a gravity-fed continuous focal perfusion system.

T1 sequence (Q8NER1 whole entry, species assumed): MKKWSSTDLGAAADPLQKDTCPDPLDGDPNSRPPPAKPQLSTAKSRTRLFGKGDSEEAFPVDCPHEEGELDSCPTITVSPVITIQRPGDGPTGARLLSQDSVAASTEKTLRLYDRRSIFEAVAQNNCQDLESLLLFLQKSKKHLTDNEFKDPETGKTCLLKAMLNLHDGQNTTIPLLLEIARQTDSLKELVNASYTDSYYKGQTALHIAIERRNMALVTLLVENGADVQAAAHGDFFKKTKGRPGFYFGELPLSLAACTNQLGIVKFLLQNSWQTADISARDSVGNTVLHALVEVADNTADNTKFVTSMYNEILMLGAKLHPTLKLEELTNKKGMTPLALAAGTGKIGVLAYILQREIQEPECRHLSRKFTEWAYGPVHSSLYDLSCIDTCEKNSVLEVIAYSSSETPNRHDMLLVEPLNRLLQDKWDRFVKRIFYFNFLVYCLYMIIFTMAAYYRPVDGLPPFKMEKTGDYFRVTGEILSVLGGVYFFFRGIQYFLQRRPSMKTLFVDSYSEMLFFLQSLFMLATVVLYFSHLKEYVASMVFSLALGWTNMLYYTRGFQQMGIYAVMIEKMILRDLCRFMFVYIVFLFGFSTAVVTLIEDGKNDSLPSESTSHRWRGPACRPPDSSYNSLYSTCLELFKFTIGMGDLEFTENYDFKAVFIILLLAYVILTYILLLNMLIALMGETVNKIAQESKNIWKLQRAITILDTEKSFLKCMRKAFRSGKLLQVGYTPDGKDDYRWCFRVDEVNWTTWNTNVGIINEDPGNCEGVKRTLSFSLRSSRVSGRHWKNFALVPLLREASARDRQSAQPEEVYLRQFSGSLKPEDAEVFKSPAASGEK

CCOC(=O)CC(SP(=S)(OC)OC)C(=O)OCC (stereo not drawn) [malathion, S-[1,2-bis (ethoxycarbonyl)ethyl] O, O-dimethyl phosphorodithioate]
activation of TRPV1 [1]: could not activate | activation of TRPV3 [2]: could not activate | activation of TRPM8 [3]: could not activate | response of mutant hTRPA1 compared to WT channels [4]: significantly reduced | [Ca2+]i response of DRG neurons from Trpa1−/− mice ([5]; Trpa1−/− neurons): thoroughly unresponsive | neurons displaying a robust increase in [Ca2+]i ([5]; wild-type small-diameter neurons, sequential application of AITC and malathion, 197/451): ~ 44%

Reference: publication PMC5537602, “TRPA1 channel mediates organophosphate-induced delayed neuropathy” (Cell Discovery, 2017)
